Source: PMC7467569, “The Progesterone 5β-Reductase/Iridoid Synthase Family: A Catalytic Reservoir for Specialized Metabolism across Land Plants” (ACS Chemical Biology, 2020)

Key:
Digitalis purpurea 2 = target: T1, Digitalis purpurea 2 (Digitalis purpurea, UniProt D2JSQ9); experiment: NADPH consumption at […] nm; format: biochemical; conditions: 250 μM NADPH, 50 mM HEPES/NaOH pH 7.0, 100 mM NaCl, 25 °C, 0.1% tetrahydrofuran; read-out: 8-Oxogeranial / KM
T1 construct: gene P5BR2; synthetic gene in pOPINF, N-terminal His6 tag (no cleavage told), E. coli

[1] = target: T2, Catharanthus roseus 5 (PRISE5, ISY) (Catharanthus roseus, UniProt K7WDL7); experiment: NADPH consumption at […] nm; format: biochemical; conditions: read-out: Progesterone / KM; 250 μM NADPH, 50 mM HEPES/NaOH pH 7.0, 100 mM NaCl, 25 °C, 1.5% ethanol
T2 construct: codon-optimized gene from earlier study in pOPINF, N-terminal His6 tag (no cleavage told), E. coli

SMILES	Km (Digitalis purpurea 2)	Km [1]
C/C(C=O)=C\CC/C(C)=C/C=O [8-oxogeranial]	17.7 ± 5.9 µM	
CC(=O)[C@H]1CC[C@H]2[C@@H]3CCC4=CC(=O)CC[C@]4(C)[C@H]3CC[C@]12C [progesterone]		28.8 ± 11.5 µM
